Results on three molecules are retold here after patent US20050084916A1, “Identification of the IkappaBNS protein and its products” (priority 2001, published 2005).

Test [1] relates to IκBNS mRNA. The class given is cell-based, mouse.
Test [2] concerns thymocytes in N15tg RAG-2−/− H-2b FTOC. The note with it: cited from earlier work.
Test [3] concerns NF-κB. Description: NF-κB luciferase reporter assay in transfected Cos-7 cells. The class given is cell-based.
For test [4], the system named is NF-κB. Description: NF-κB-sensitive reporter constructs in transiently transfected Jurkat T cells. The class given is cell-based.

Take `CC(C)C[C@H](N)C(=O)O` [L4]: the “IκBNS mRNA induction” value in test [1] is “do not upregulate”. In addition, the thymic selection outcome in test [2] is on record as “positive selection”.
As to `CCCCCCCCCCCCCC(=O)O[C@@H]1[C@@H](C)[C@@]2(O)[C@@H](C=C(CO)C[C@]3(O)C(=O)C(C)=C[C@@H]23)[C@@H]2C(C)(C)[C@]12OC(C)=O` [PMA, phorbol-12-myristate-13-acetate], the “increase in NF-κB luciferase activity relative to untreated cells” value in test [3] (50 ng/ml for 7 h) is recorded as 5-10 fold.

B1: IκBNS: novel 327 amino acid IκB family protein with 7 ankyrin domains (SEQ ID NO: 4); expressed from Flag-tagged pcDNA3.1 construct (protein)
chain: MEDSLDTRLYPEPSLSQVGSWRVSSLPSGSPQLPSPTGPSLETARAHILALGPQQLLAQMEDDTYSLQGWRVSPSGPQPGPSLEARAHLALGPQQLLAQDEEGDTLLHLFAARGLRWAAYAAAEVLQMYRQLDIREHKGKTPLLVAAAANQPLIVEDLLDEEGDTLLHLFAARGLRWAAYAAAEVLQYRLDIREHKGKTPLLVAAAANQPLIVEDLLSLGAEPNATDHQGRSVLHVAATYGLPGVLSAVFKSGIQVDLEARDFEGLTPLHTAVLALNLGAEPNADHQGRSVLHVAATYGLPGVLAVSGQVDLEARDFEGLTPLHTALALNAAMLPASVCPRMQNSQARDRLTCVQMLLQMGASHTSQEIKSNKTILHLAVQAANPTLVQLAMPCPRQARDRLCVMLLQMGAHTSQEIKSNKTLHLAVQAANPTLVQLLLGLPRGDLRAFVNMKAHGNTALHMAAALPPGPPQEAIVRHLLAAGADPTLRNLENEQPVLLLPRGDLRFVNMKAHGNTALHMAAALPPGPQEAIVRHLLAAGADPTLRNLEGEQPVHLLRPGGPEGLRQLLKRSRTAPPGLSSHLLRPGGPEGLRQLLKRSRAPPGLSS
modifications: Flag tag; mouse
notes: expressed from Flag-tagged pcDNA3.1 construct
Consider B1, for which, in test [3] (10 μg construct, PMA 50 ng/ml 7 h), the “effect of cotransfection on PMA-induced NF-κB-driven luciferase activity” value is listed as “reduced NF-κB-driven luciferase activity to a level approaching that of cells transfected with the vector only”. Moreover, in test [4], the “activity of NF-κB-sensitive reporter constructs” value is “reduced the activity”.
